Assays:
[1] = Toxicity in sheep RBC assessed as hemolysis; assay type: cell-based, Ovis aries; conditions: erythrocyte
Pseudomonas aeruginosa = experiment: Antimicrobial activity against Pseudomonas aeruginosa; assay type: functional
Clostridium perfringens = experiment: Antimicrobial activity against Clostridium welchii; assay type: functional
Staphylococcus aureus = experiment: Antimicrobial activity against Staphylococcus aureus; assay type: functional
[2] = tested on: Mycobacterium tuberculosis; experiment: Antimicrobial activity against Mycobacterium tuberculosis; assay type: functional
[3] = Drug absorption in intestine (unknown origin) assessed as tissue-bound transfer; assay type: ADME, tissue-based
[4] = Drug absorption in intestine (unknown origin) assessed as serosal transfer; assay type: ADME, tissue-based
[5] = Drug absorption in intestine (unknown origin) assessed as mucosal loss; assay type: ADME, tissue-based
Mus musculus = experiment: Induction of anesthetic activity in mouse; assay type: functional
Oryctolagus cuniculus = species on record: Oryctolagus cuniculus; experiment: Induction of hypnotic activity in rabbit; assay type: functional
Rattus norvegicus = species on record: Rattus norvegicus; experiment: Induction of hypnotic activity in rat; assay type: functional

CCCCCCCCCCCCCCCCCC[N+](C)(C)Cc1ccccc1
-log(1/HC50) [1]: 4.52 | -log(1/MKC) (Pseudomonas aeruginosa): 2.63 | -log(1/MIC) (Clostridium perfringens): 4.71 | -log(1/MKC) (Clostridium perfringens): 4.71 | -log(1/MIC) (Staphylococcus aureus): 5.19

CCCCCCCCCC[N+](C)(C)Cc1ccccc1
-log(1/HC50) [1]: 2.95 | -log(1/MIC) (Pseudomonas aeruginosa): 2.74 | -log(1/MKC) (Pseudomonas aeruginosa): 2.41 | -log(1/MIC) (Clostridium perfringens): 3.57 | -log(1/MKC) (Clostridium perfringens): 3.57 | -log(1/MIC) (Staphylococcus aureus): 4.74

CCOc1ccc(N)cc1
-log(1/MIC) [2]: 4.44

COc1ccc(N)cc1
-log(1/MIC) [2]: 3.39

CCCCCCOc1ccc(N)cc1
-log(1/MIC) [2]: 5.8

CCCCOc1ccc(N)cc1
-log(1/MIC) [2]: 5.42

CCCCCOC(N)=O
log%Abs [3]: 0.02 | log%Abs [4]: 0.57 | log%Abs [5]: 0.68

CCCCCCCC[N+](C)(C)Cc1ccc(Cl)cc1
-log(1/MIC) (Staphylococcus aureus): 2.6

CCCCCCCCCC[N+](C)(C)Cc1ccc(Cl)cc1
-log(1/MIC) (Staphylococcus aureus): 3.6

CCCCCCCCCCCCCCCCCC[N+](C)(C)Cc1ccc(Cl)cc1Cl
-log(1/MIC) (Staphylococcus aureus): 3.3

CCCCCCCCCCCC[N+](C)(C)Cc1ccc2c(c1)OCO2
-log(1/MIC) (Staphylococcus aureus): 4

CCCCCCCCCCCCCCCC[N+](C)(C)Cc1ccc2c(c1)OCO2
-log(1/MIC) (Staphylococcus aureus): 4.2

CCCCCCCC[N+](C)(C)Cc1ccccc1
-log(1/HC50) [1]: 1.52 | -log(1/MKC) (Pseudomonas aeruginosa): 1.68 | -log(1/MIC) (Clostridium perfringens): 3 | -log(1/MKC) (Clostridium perfringens): 2.69 | -log(1/MIC) (Staphylococcus aureus): 3.69

CCCCCCCCCCC[N+](C)(C)Cc1ccccc1
-log(1/MIC) (Pseudomonas aeruginosa): 3.06 | -log(1/MKC) (Pseudomonas aeruginosa): 2.92 | -log(1/MIC) (Clostridium perfringens): 4.06 | -log(1/MKC) (Clostridium perfringens): 4.06 | -log(1/MIC) (Staphylococcus aureus): 5.06

CCCCCCCCCCCCCCC[N+](C)(C)Cc1ccccc1
-log(1/MIC) (Pseudomonas aeruginosa): 3.84 | -log(1/MKC) (Pseudomonas aeruginosa): 3.74 | -log(1/MIC) (Clostridium perfringens): 5.14 | -log(1/MKC) (Clostridium perfringens): 5.14 | -log(1/MIC) (Staphylococcus aureus): 5.84

CCCCCCCCCCCCCCCCC[N+](C)(C)Cc1ccccc1
-log(1/MIC) (Pseudomonas aeruginosa): 3.57 | -log(1/MKC) (Pseudomonas aeruginosa): 3.06 | -log(1/MIC) (Clostridium perfringens): 4.7 | -log(1/MKC) (Clostridium perfringens): 4.7 | -log(1/MIC) (Staphylococcus aureus): 5.18

CCCCCCCCCCCCCCCCCCC[N+](C)(C)Cc1ccccc1
-log(1/MIC) (Pseudomonas aeruginosa): 2.91 | -log(1/MKC) (Pseudomonas aeruginosa): 2.52 | -log(1/MIC) (Clostridium perfringens): 4.73 | -log(1/MKC) (Clostridium perfringens): 4.73 | -log(1/MIC) (Staphylococcus aureus): 4.91

CC(C(C)(C)C)C1(C)C(=O)NC(=O)NC1=O (centres undefined)
-log(1/AD50) (Mus musculus): 2.64

CC(C)(C)CC1(C)C(=O)NC(=O)NC1=O
-log(1/AD50) (Mus musculus): 2.12

CCC1(CC(C)C)C(=O)NC(=O)NC1=O
-log(1/MED) (Oryctolagus cuniculus): 3.63

CCC1(CC(C)(C)C)C(=O)NC(=O)NC1=O
-log(1/AD50) (Mus musculus): 2.91

CCC1(C(C)C(C)(C)C)C(=O)NC(=O)NC1=O (centres undefined)
-log(1/AD50) (Mus musculus): 3.15

CCCC1(CCC)C(=O)NC(=O)NC1=O
-log(1/MED) (Oryctolagus cuniculus): 3.55

CCCC1(C(C)C)C(=O)NC(=O)NC1=O
-log(1/MED) (Oryctolagus cuniculus): 3.63

CCCC1(CCC(C)C)C(=O)NC(=O)NC1=O
-log(1/MED) (Oryctolagus cuniculus): 3.48

CCCC1(C(C)C(C)(C)C)C(=O)NC(=O)NC1=O (centres undefined)
-log(1/AD50) (Mus musculus): 3.29

CCCC1(CC(C)(C)C)C(=O)NC(=O)NC1=O
-log(1/AD50) (Mus musculus): 3.04

C=CCC1(CCC)C(=O)NC(=O)NC1=O
-log(1/MED) (Rattus norvegicus): 3.47

CCCCC1(C(C)C)C(=O)NC(=O)NC1=O
-log(1/MED) (Rattus norvegicus): 3.49

CCCCC1(CCCC)C(=O)NC(=O)NC1=O
-log(1/MED) (Rattus norvegicus): 3.08

CCCCC1(C(C)C(C)(C)C)C(=O)NC(=O)NC1=O (centres undefined)
-log(1/AD50) (Mus musculus): 3.36

CCCCC1(CC(C)(C)C)C(=O)NC(=O)NC1=O
-log(1/AD50) (Mus musculus): 3.33

CC(C)CC1(CC(C)(C)C)C(=O)NC(=O)NC1=O
-log(1/AD50) (Mus musculus): 3.27

CCCCCC1(CC(C)(C)C)C(=O)NC(=O)NC1=O
-log(1/AD50) (Mus musculus): 3.32

C=CCC1(CCC(C)C)C(=O)NC(=O)NC1=O
-log(1/MED) (Rattus norvegicus): 3.45

CC(C)CCC1(CC(C)(C)C)C(=O)NC(=O)NC1=O
-log(1/AD50) (Mus musculus): 3.26

C=CCC1(C(C)C(C)(C)C)C(=O)NC(=O)NC1=O (centres undefined)
-log(1/AD50) (Mus musculus): 3.39

CCCOC(N)=O
log%Abs [3]: -0.04 | log%Abs [4]: 0.71 | log%Abs [5]: 0.78

CC(C)(C)OC(N)=O
log%Abs [3]: 0 | log%Abs [4]: 0.65 | log%Abs [5]: 0.73

CC(C)COC(N)=O
log%Abs [3]: 0.04 | log%Abs [4]: 0.75 | log%Abs [5]: 0.83

CCCCOC(N)=O
log%Abs [3]: 0.1 | log%Abs [4]: 0.82 | log%Abs [5]: 0.9

CCC(C)(C)OC(N)=O
log%Abs [3]: 0.04 | log%Abs [4]: 0.68 | log%Abs [5]: 0.77

CCCC(C)(C)OC(N)=O
log%Abs [3]: -0.21 | log%Abs [4]: 0.09 | log%Abs [5]: 0.26

CCCCCCOC(N)=O
log%Abs [3]: -0.05 | log%Abs [4]: 0.35 | log%Abs [5]: 0.5

CCCCCCCOC(N)=O
log%Abs [3]: -0.28 | log%Abs [4]: -0.17 | log%Abs [5]: 0.08

CCCCCCCCOC(N)=O
log%Abs [3]: -0.57 | log%Abs [4]: -0.43 | log%Abs [5]: -0.19

CCCCCOc1ccc(N)cc1
-log(1/MIC) [2]: 5.45

CCCCCCCCOc1ccc(N)cc1
-log(1/MIC) [2]: 3.44

COc1ncccc1N
-log(1/MIC) [2]: 2.59

CCOc1ncccc1N
-log(1/MIC) [2]: 3.54

CCCOc1ncccc1N
-log(1/MIC) [2]: 4.79

CC(C)COc1ncccc1N
-log(1/MIC) [2]: 4.52

CCCCCOc1ncccc1N
-log(1/MIC) [2]: 5.76

CCCCCCCOc1ncccc1N
-log(1/MIC) [2]: 4.62

CCCCCCCCOc1ncccc1N
-log(1/MIC) [2]: 3.75

CCCCCCCCCCOc1ncccc1N
-log(1/MIC) [2]: 3.19

CCCCOc1ccncc1N
-log(1/MIC) [2]: 5.73

CCCCCCOc1ccncc1N
-log(1/MIC) [2]: 5.8

CCCCOc1ccc(N)cn1
-log(1/MIC) [2]: 5.13

CCCCCCOc1ccc(N)cn1
-log(1/MIC) [2]: 5.49

CCCCOc1ccc(N)c2ccccc12
-log(1/MIC) [2]: 4.03

C=CCC1(CCCC)C(=O)NC(=O)NC1=O
-log(1/MED) (Rattus norvegicus): 3.47

C=CCC1(CC=C)C(=O)NC(=O)NC1=O [ALLOBARBITAL]
-log(1/MED) (Rattus norvegicus): 3.54

CCC1(CCC(C)C)C(=O)NC(=O)NC1=O [AMOBARBITAL]
-log(1/MED) (Rattus norvegicus): 3.59

C=CCC1(C(C)C)C(=O)NC(=O)NC1=O [APROBARBITAL]
-log(1/MED) (Rattus norvegicus): 3.6

CCC1(CC)C(=O)NC(=O)NC1=O [BARBITAL]
-log(1/MED) (Rattus norvegicus): 2.91

CCCCCCCCCCCCC[N+](C)(C)Cc1ccccc1 [BENZALKONIUM]
-log(1/MIC) (Pseudomonas aeruginosa): 3.8 | -log(1/MKC) (Pseudomonas aeruginosa): 3.85 | -log(1/MIC) (Clostridium perfringens): 5.1 | -log(1/MKC) (Clostridium perfringens): 5.1 | -log(1/MIC) (Staphylococcus aureus): 5.8

CCCCCCCCCCCC[N+](C)(C)Cc1ccccc1 [BENZODODECINIUM]
-log(1/HC50) [1]: 3.82 | -log(1/MIC) (Pseudomonas aeruginosa): 3.61 | -log(1/MKC) (Pseudomonas aeruginosa): 3.45 | -log(1/MIC) (Clostridium perfringens): 4.61 | -log(1/MKC) (Clostridium perfringens): 4.61 | -log(1/MIC) (Staphylococcus aureus): 5.61

NC(=O)OCc1ccccc1 [BENZYL CARBAMATE]
log%Abs [3]: 0.01 | log%Abs [4]: 0.59 | log%Abs [5]: 0.69

C=CCC1(CC(C)C)C(=O)NC(=O)NC1=O [BUTALBITAL]
-log(1/MED) (Rattus norvegicus): 3.63

CCCCC1(CC)C(=O)NC(=O)NC1=O [BUTETHAL]
-log(1/MED) (Rattus norvegicus): 3.53

CCCCCCCCCCCCCCCC[N+](C)(C)Cc1ccccc1 [CETALKONIUM]
-log(1/HC50) [1]: 4.79 | -log(1/MIC) (Pseudomonas aeruginosa): 3.68 | -log(1/MKC) (Pseudomonas aeruginosa): 3.3 | -log(1/MIC) (Clostridium perfringens): 5.16 | -log(1/MKC) (Clostridium perfringens): 5.16 | -log(1/MIC) (Staphylococcus aureus): 5.56

C=CCC1(CC)C(=O)NC(=O)NC1=O [ETALLOBARBITAL]
-log(1/MED) (Rattus norvegicus): 3.28

COC(N)=O [METHYL CARBAMATE]
log%Abs [3]: -0.38 | log%Abs [4]: 0.45 | log%Abs [5]: 0.52

CCCCCCCCCCCCCC[N+](C)(C)Cc1ccccc1 [MIRISTALKONIUM ION]
-log(1/HC50) [1]: 4.4 | -log(1/MIC) (Pseudomonas aeruginosa): 3.65 | -log(1/MKC) (Pseudomonas aeruginosa): 3.96 | -log(1/MIC) (Clostridium perfringens): 5.12 | -log(1/MKC) (Clostridium perfringens): 5.12 | -log(1/MIC) (Staphylococcus aureus): 5.82

CCC1(c2ccccc2)C(=O)NC(=O)NC1=O [PHENOBARBITAL]
-log(1/MED) (Oryctolagus cuniculus): 3.46

CCC1(C(C)C)C(=O)NC(=O)NC1=O [PROBARBITAL]
-log(1/MED) (Oryctolagus cuniculus): 3.3 | -log(1/MED) (Rattus norvegicus): 3.34

C=CCC1(C(C)CC)C(=O)NC(=O)NC1=O (centres undefined) [TALBUTAL]
-log(1/MED) (Rattus norvegicus): 3.78

CCOC(N)=O [URETHANE]
log%Abs [3]: -0.22 | log%Abs [4]: 0.53 | log%Abs [5]: 0.6
